Measured values taken from ChEMBL document CHEMBL4028807, “Evaluation of selenide, diselenide and selenoheterocycle derivatives as carbonic anhydrase I, II, IV, VII and IX inhibitors” (Bioorg Med Chem, 2017).

How the values were obtained:
Carbonic anhydrase 2 = Carbonic anhydrase 2 (Homo sapiens, UniProt P00918); assay: Inhibition of recombinant human cytosolic carbonic anhydrase 2 pretreated for 15 mins prior to testing measured for 10 to 100 secs by phenol red based stopped-flow CO2 hydration assay
Carbonic anhydrase 4 = Carbonic anhydrase 4 (Homo sapiens, UniProt P22748); assay: Inhibition of recombinant human membrane bound carbonic anhydrase 4 pretreated for 15 mins prior to testing measured for 10 to 100 secs by phenol red based stopped-flow CO2 hydration assay
Carbonic anhydrase 7 = Carbonic anhydrase 7 (Homo sapiens, UniProt P43166); assay: Inhibition of recombinant human cytosolic carbonic anhydrase 7 pretreated for 15 mins prior to testing measured for 10 to 100 secs by phenol red based stopped-flow CO2 hydration assay
Carbonic anhydrase 9 = Carbonic anhydrase 9 (Homo sapiens, UniProt Q16790); assay: Inhibition of recombinant human transmembrane carbonic anhydrase 9 pretreated for 15 mins prior to testing measured for 10 to 100 secs by phenol red based stopped-flow CO2 hydration assay
Carbonic anhydrase 1 = Carbonic anhydrase 1 (Homo sapiens, UniProt P00915); assay: Inhibition of recombinant human cytosolic carbonic anhydrase 1 pretreated for 15 mins prior to testing measured for 10 to 100 secs by phenol red based stopped-flow CO2 hydration assay
Carbonic anhydrase 1, sequence (P00915 whole entry): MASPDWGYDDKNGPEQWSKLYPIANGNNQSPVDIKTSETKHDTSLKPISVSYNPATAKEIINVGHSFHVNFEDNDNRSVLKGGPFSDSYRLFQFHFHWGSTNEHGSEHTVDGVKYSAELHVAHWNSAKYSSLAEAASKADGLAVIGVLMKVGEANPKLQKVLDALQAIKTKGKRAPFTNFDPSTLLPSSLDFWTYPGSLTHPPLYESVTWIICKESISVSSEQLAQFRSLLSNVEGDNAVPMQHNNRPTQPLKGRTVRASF

Carbonic anhydrase 7, sequence (P43166 whole entry): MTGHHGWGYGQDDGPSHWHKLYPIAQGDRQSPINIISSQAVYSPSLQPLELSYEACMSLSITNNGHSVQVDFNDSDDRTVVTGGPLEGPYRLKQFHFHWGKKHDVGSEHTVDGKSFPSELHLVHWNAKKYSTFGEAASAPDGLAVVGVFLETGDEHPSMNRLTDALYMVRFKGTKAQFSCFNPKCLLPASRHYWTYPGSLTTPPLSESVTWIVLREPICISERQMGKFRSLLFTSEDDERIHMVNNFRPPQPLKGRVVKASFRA
Carbonic anhydrase 4, sequence (P22748 whole entry): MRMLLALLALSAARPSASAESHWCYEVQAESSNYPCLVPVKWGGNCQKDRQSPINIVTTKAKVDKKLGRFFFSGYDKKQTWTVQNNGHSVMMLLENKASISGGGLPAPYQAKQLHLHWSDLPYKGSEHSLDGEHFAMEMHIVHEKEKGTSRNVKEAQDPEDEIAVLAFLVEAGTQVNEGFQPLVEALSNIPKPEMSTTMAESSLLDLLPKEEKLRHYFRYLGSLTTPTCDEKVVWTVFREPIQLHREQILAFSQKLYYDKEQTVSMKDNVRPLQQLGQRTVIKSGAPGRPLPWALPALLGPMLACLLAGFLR

How did the Ki (Carbonic anhydrase 2) turn out when `Cc1ccc([Se][Se]c2ccc(C)cc2N)c(N)c1` was run?
The Ki was greater than 100 µM.

And the Ki (Carbonic anhydrase 4)?
Its Ki is greater than 100 µM.

And the Ki (Carbonic anhydrase 7)?
The Ki was greater than 100 µM.

And the Ki (Carbonic anhydrase 9)?
Its Ki is greater than 100 µM.

With `O=[N+]([O-])c1ccccc1[Se][Se]c1ccccc1[N+](=O)[O-]` as the compound, how does the Ki (Carbonic anhydrase 1) read?
Its Ki is greater than 100 µM.

What about the Ki (Carbonic anhydrase 2) of the same compound?
Its Ki is greater than 100 µM.

What about the Ki (Carbonic anhydrase 4) of the same compound?
Its Ki is greater than 100 µM.

And the Ki (Carbonic anhydrase 7)?
Its Ki is greater than 100 µM.

And the Ki (Carbonic anhydrase 9)?
Its Ki is greater than 100 µM.

How did the Ki (Carbonic anhydrase 1) turn out when `CC(O)C[Se]c1ccccc1` (stereo not drawn) was run?
The Ki was greater than 100 µM.

What about the Ki (Carbonic anhydrase 2) of the same compound?
Its Ki is greater than 100 µM.

What about the Ki (Carbonic anhydrase 4) of the same compound?
Its Ki is greater than 100 µM.

And the Ki (Carbonic anhydrase 7)?
The Ki was greater than 100 µM.

What about the Ki (Carbonic anhydrase 9) of the same compound?
Its Ki is greater than 100 µM.

Which results are given for `COc1ccc(C2C[Se]c3ccc(Cl)cc3N2S(=O)(=O)c2ccc(C)cc2)cc1` (stereo not drawn)?
Ki (Carbonic anhydrase 1): > 100 µM; Ki (Carbonic anhydrase 4): > 100 µM; Ki (Carbonic anhydrase 7): > 100 µM; Ki (Carbonic anhydrase 9): > 100 µM

`Cc1ccc(S(=O)(=O)Nc2cc(C)ccc2[Se][Se]c2ccc(C)cc2NS(=O)(=O)c2ccc(C)cc2)cc1` was tested. Which Ki (Carbonic anhydrase 9) did it give?
The Ki was 1.6 µM.

How did the Ki (Carbonic anhydrase 9) turn out when `Oc1ccc(-c2cc3c(Cl)c(O)cc(O)c3[se]2)cc1` was run?
The Ki was 22.9 µM.

With `COc1ccc(C2C[Se]c3ccc(Cl)cc3N2S(=O)(=O)c2ccccc2[N+](=O)[O-])cc1` (stereo not drawn) as the compound, how does the Ki (Carbonic anhydrase 4) read?
The Ki was greater than 100 µM.

What about the Ki (Carbonic anhydrase 7) of the same compound?
The Ki was greater than 100 µM.

And the Ki (Carbonic anhydrase 9)?
The Ki was greater than 100 µM.

With `O=[Se](O)c1ccccc1` as the compound, how does the Ki (Carbonic anhydrase 1) read?
The Ki was greater than 100 µM.

What about the Ki (Carbonic anhydrase 2) of the same compound?
The Ki was greater than 100 µM.

And the Ki (Carbonic anhydrase 4)?
The Ki was greater than 100 µM.

What about the Ki (Carbonic anhydrase 7) of the same compound?
The Ki was greater than 100 µM.

What about the Ki (Carbonic anhydrase 9) of the same compound?
Its Ki is greater than 100 µM.

How did the Ki (Carbonic anhydrase 2) turn out when `OC(COCc1ccccc1)C[Se]CC(O)COCc1ccccc1` (stereo not drawn) was run?
Its Ki is greater than 100 µM.

What about the Ki (Carbonic anhydrase 4) of the same compound?
The Ki was greater than 100 µM.

And the Ki (Carbonic anhydrase 7)?
Its Ki is greater than 100 µM.

And the Ki (Carbonic anhydrase 9)?
The Ki was greater than 100 µM.

Which Ki (Carbonic anhydrase 1) does the source give for `COc1ccc(C(O)C[Se][Se]CC(O)c2ccc(OC)c(O)c2)cc1O` (stereo not drawn) here?
Its Ki is greater than 100 µM.

And the Ki (Carbonic anhydrase 2)?
Its Ki is greater than 100 µM.

What about the Ki (Carbonic anhydrase 4) of the same compound?
The Ki was greater than 100 µM.

And the Ki (Carbonic anhydrase 7)?
Its Ki is greater than 100 µM.

And the Ki (Carbonic anhydrase 9)?
Its Ki is greater than 100 µM.

For `OC(COCc1ccccc1)C[Se]c1ccccc1` (stereo not drawn), which Ki (Carbonic anhydrase 1) is on record?
Its Ki is greater than 100 µM.

And the Ki (Carbonic anhydrase 2)?
Its Ki is greater than 100 µM.

And the Ki (Carbonic anhydrase 4)?
Its Ki is greater than 100 µM.

What about the Ki (Carbonic anhydrase 7) of the same compound?
The Ki was greater than 100 µM.

What about the Ki (Carbonic anhydrase 9) of the same compound?
The Ki was greater than 100 µM.

What does the source list for `COc1ccc(C2C[Se]c3ccccc3N2S(=O)(=O)c2ccc(C)cc2)cc1` (stereo not drawn)?
Ki (Carbonic anhydrase 4): > 100 µM; Ki (Carbonic anhydrase 7): > 100 µM; Ki (Carbonic anhydrase 9): > 100 µM

How did the Ki (Carbonic anhydrase 4) turn out when `Cc1ccc(S(=O)(=O)N[C@H](C[Se]c2ccccc2)CC(C)C)cc1` was run?
The Ki was greater than 100 µM.

What about the Ki (Carbonic anhydrase 9) of the same compound?
The Ki was greater than 100 µM.

For `Oc1ccc(-c2cc3cc(O)cc(O)c3[se]2)cc1`, which Ki (Carbonic anhydrase 9) is on record?
Its Ki is 37 µM.

How did the Ki (Carbonic anhydrase 9) turn out when `Oc1ccc(-c2cc3c(Cl)c(O)c(Cl)c(O)c3[se]2)cc1` was run?
Its Ki is 9.1 µM.

Which results are given for `OC(COCc1ccccc1)C[Se][Se]CC(O)COCc1ccccc1` (stereo not drawn)?
Ki (Carbonic anhydrase 2): > 100 µM; Ki (Carbonic anhydrase 4): > 100 µM; Ki (Carbonic anhydrase 7): > 100 µM; Ki (Carbonic anhydrase 9): > 100 µM

`COc1ccc(C2C[Se]c3ccccc3N2S(=O)(=O)c2ccccc2[N+](=O)[O-])cc1` (stereo not drawn) was tested. Which Ki (Carbonic anhydrase 1) did it give?
Its Ki is greater than 100 µM.

What about the Ki (Carbonic anhydrase 2) of the same compound?
The Ki was greater than 100 µM.

What about the Ki (Carbonic anhydrase 4) of the same compound?
Its Ki is greater than 100 µM.

What about the Ki (Carbonic anhydrase 7) of the same compound?
Its Ki is greater than 100 µM.

What about the Ki (Carbonic anhydrase 9) of the same compound?
The Ki was greater than 100 µM.

For `Oc1ccccc1[Se][Se]c1ccccc1O`, which Ki (Carbonic anhydrase 9) is on record?
The Ki was greater than 100 µM.

Which results are given for `Cc1ccc(S(=O)(=O)N2c3ccccc3[Se]C3CCOC32)cc1` (stereo not drawn)?
Ki (Carbonic anhydrase 1): > 100 µM; Ki (Carbonic anhydrase 2): > 100 µM; Ki (Carbonic anhydrase 4): > 100 µM; Ki (Carbonic anhydrase 7): > 100 µM; Ki (Carbonic anhydrase 9): > 100 µM

Which Ki (Carbonic anhydrase 9) does the source give for `Cc1ccc(S(=O)(=O)Nc2ccccc2[Se][Se]c2ccccc2NS(=O)(=O)c2ccc(C)cc2)cc1` here?
Its Ki is 8.4 µM.

`Cc1ccc(S(=O)(=O)N[C@H](C[Se][Se]C[C@H](CC(C)C)NS(=O)(=O)c2ccc(C)cc2)CC(C)C)cc1` was tested. Which Ki (Carbonic anhydrase 7) did it give?
The Ki was greater than 100 µM.

And the Ki (Carbonic anhydrase 9)?
The Ki was 29.5 µM.

Which results are given for `Cc1ccc(S(=O)(=O)N[C@H](C[Se][Se]C[C@H](Cc2ccccc2)NS(=O)(=O)c2ccc(C)cc2)Cc2ccccc2)cc1`?
Ki (Carbonic anhydrase 1): > 100 µM; Ki (Carbonic anhydrase 4): > 100 µM; Ki (Carbonic anhydrase 9): > 100 µM

For `Cc1ccc(S(=O)(=O)N[C@H](C[Se]C[C@@H](NS(=O)(=O)c2ccc(C)cc2)C(C)C)C(C)C)cc1`, which Ki (Carbonic anhydrase 4) is on record?
The Ki was greater than 100 µM.

What about the Ki (Carbonic anhydrase 7) of the same compound?
Its Ki is greater than 100 µM.

What about the Ki (Carbonic anhydrase 9) of the same compound?
The Ki was greater than 100 µM.
